Test results taken from US7399869B2, “Fibroblast activation protein inhibitor compounds and methods” (Genentech, Inc., priority 2005, dated 2008).

Experiments:
Assay type in all cases: biochemical
APH = molecular target: T1, APH (Homo sapiens, UniProt P13798); test: Inhibition of APH by Ac-Gly-boroPro 5; settings: substrate Ac-Ala-AMC, 23° C., progress curves
T1 construct: 2-732 of APH; FLAG (N); made in house; host or cells: 293 cells; template plasmid from Origene
T1 sequence (P13798 2-732): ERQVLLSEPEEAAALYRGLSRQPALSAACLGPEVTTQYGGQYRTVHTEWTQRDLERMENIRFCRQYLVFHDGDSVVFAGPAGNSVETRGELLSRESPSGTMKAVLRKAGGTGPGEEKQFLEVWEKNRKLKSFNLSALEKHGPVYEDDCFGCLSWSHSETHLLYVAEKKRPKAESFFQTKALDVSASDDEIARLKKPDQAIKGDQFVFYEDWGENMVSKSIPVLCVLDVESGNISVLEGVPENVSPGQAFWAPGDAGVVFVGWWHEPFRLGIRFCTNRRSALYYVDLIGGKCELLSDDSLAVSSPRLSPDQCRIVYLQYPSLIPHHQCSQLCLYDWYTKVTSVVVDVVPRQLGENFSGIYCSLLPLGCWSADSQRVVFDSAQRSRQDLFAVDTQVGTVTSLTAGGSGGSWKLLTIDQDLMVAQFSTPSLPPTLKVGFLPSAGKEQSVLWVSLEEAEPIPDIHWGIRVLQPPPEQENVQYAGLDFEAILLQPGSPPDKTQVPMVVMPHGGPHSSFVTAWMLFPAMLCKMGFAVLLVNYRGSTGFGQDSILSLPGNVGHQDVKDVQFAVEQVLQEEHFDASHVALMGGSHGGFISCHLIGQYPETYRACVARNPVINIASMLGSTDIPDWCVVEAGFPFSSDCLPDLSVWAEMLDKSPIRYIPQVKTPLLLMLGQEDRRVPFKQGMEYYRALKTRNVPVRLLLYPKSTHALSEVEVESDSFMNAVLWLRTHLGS
Procedure: (§1) To establish whether Ac-Gly-BoroPro 5 inhibits these prolyl peptidases, each protease was cloned, expressed and assayed to determine Km and Ki values and monitor their activity.
(§2) Briefly, proteases were added to a reaction mixture containing inhibitor and substrate (Ac-Ala-AMC for APH, Z-Gly-Pro-AMC for POP, and Ala-Pro-AFC for all others) in assay buffer at 23° C. Protease activity was followed continuously as described above to monitor time-dependent inhibition. Data were plotted as V0/Vi−1 versus [I], where V0 is the rate if substrate hydrolysis in the absence of inhibitor, Vi is the steady state rate of substrate hydrolysis in the presence of inhibitor and [I] is the concentration of Ac-Gly-BoroPro.
(§3) KI values for inhibition of proteases by 5 were determined using the method of progress curves. Briefly, proteases (10-100 nM) were added to a reaction mixture containing inhibitor 5 (0-10 μM) and substrate AP-AFC in assay buffer at 23° C. […] Ki, the true equilibrium inhibition constant was determined according to the following relationship: Ki=Kobs/(1+[S]/Km), where [S] is the concentration of substrate used in the assay and Km is the Michaelis constant for substrate cleavage. […]

[1] = molecular target: T2, full-length (transmembrane) murine FAP (Mus musculus, UniProt P97321); test: Inhibition of murine FAP in cell lysate
T2 sequence (P97321 1-761): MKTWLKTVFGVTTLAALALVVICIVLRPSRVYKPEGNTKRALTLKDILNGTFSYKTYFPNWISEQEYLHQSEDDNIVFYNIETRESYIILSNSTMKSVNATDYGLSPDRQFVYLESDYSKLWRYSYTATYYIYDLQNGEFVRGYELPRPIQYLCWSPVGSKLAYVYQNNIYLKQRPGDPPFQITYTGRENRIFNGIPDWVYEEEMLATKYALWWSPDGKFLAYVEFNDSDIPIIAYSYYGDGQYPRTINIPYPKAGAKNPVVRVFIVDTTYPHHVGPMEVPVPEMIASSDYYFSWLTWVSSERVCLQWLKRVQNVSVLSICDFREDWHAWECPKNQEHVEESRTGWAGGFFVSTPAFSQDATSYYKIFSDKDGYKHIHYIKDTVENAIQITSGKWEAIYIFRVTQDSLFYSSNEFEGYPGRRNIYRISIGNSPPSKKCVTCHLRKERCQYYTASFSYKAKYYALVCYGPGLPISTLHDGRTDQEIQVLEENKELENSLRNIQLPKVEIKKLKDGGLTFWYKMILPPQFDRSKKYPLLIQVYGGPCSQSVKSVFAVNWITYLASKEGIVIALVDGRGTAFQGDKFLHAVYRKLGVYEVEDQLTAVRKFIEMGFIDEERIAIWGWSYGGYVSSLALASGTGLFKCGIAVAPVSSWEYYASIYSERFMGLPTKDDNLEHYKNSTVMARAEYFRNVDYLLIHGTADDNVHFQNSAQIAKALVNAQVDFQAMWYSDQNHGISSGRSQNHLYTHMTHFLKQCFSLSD

DPP-8 = molecular target: T3, DPP-8 (Homo sapiens, UniProt Q6V1X1); test: Inhibition of DPP-8 by Ac-Gly-boroPro 5
T3 construct: 2-883 of DPP-8; FLAG (N); made in house; host or cells: 293 cells; template plasmid from Origene
Procedure: as §1, §2, §3

DPP-7 = molecular target: T4, DPP-7 (Homo sapiens, UniProt Q9UHL4); test: Inhibition of DPP-7 by Ac-Gly-boroPro 5; settings: substrate Ala-Pro-AFC, 23° C., progress curves
T4 construct: These constructs encoded amino acids 26-492 of DPP-7; FLAG (N); made in house; host or cells: 293 cells; template plasmid from Origene
Procedure: as §1, §2, §3

DPP-9 = molecular target: T5, DPP-9 (Homo sapiens, UniProt Q86TI2); test: Inhibition of DPP-9 by Ac-Gly-boroPro 5
T5 construct: 2-864 of DPP-9; FLAG (N); made in house; host or cells: 293 cells; template plasmid from Origene
Procedure: as §1, §2, §3

[2] = substrate Ala-Pro-AFC, 23° C., progress curves

T3 sequence (Q6V1X1 18-898 limits assumed): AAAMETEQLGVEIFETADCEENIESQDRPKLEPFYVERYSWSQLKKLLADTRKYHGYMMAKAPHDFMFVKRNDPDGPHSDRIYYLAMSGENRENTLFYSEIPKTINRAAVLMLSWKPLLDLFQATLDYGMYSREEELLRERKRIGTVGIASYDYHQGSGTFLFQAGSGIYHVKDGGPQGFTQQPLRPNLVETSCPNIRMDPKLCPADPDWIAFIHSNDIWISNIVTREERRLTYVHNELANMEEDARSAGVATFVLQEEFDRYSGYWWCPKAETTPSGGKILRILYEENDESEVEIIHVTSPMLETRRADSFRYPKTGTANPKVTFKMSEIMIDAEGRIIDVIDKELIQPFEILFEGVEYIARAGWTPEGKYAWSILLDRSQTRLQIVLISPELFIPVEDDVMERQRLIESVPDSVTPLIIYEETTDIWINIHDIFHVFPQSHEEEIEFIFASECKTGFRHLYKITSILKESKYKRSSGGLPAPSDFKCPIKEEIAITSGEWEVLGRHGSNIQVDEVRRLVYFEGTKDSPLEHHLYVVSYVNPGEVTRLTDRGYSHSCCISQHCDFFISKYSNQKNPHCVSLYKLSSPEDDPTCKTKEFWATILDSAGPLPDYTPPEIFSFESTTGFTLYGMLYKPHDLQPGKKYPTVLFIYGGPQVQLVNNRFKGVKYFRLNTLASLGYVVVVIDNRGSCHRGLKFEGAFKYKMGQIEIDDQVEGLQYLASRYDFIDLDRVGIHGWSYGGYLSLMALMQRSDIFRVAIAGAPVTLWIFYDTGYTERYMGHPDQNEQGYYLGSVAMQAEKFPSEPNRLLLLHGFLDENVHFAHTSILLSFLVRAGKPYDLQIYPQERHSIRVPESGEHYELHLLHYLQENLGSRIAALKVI
T5 sequence (Q86TI2 2-863 limits assumed): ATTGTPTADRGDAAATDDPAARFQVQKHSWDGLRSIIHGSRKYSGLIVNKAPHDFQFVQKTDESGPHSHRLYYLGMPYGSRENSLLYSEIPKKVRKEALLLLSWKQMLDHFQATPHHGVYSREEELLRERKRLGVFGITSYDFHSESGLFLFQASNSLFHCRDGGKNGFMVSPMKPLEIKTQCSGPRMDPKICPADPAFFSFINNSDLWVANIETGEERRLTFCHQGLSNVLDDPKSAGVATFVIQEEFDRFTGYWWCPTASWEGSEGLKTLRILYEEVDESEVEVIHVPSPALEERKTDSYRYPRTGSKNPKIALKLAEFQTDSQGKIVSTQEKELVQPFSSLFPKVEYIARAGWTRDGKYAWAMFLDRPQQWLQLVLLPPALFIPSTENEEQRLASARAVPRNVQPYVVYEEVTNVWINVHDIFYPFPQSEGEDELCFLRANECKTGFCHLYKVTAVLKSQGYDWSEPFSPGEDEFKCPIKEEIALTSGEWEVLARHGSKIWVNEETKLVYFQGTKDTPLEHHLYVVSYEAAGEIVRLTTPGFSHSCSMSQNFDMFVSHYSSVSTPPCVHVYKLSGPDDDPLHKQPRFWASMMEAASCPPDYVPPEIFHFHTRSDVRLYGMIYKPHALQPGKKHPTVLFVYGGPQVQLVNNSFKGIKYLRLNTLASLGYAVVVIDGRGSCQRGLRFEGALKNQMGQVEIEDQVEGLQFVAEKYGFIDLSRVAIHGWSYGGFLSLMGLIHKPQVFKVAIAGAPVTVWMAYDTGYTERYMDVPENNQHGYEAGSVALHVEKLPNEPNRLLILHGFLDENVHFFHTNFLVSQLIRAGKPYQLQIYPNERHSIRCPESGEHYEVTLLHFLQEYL

CC(=O)NCC(=O)N1CCCC1B(O)O (stereo not shown) [N-Ac-Gly-boroPro 5, N-acetyl-gly-boroproline]
Ki (APH): 0.575 µM | inhibits full-length (transmembrane) murine FAP at [1]: 117 nM | reactivity with DPP-8 (DPP-8): poor reactivity | Ki (DPP-8; [2]): 19.1 µM | Ki (DPP-7): 125 µM | reactivity with DPP-9 (DPP-9): poor reactivity | Ki (DPP-9; [2]): 8.8 µM
